Patent US11439657B2, “Cancer stem cell growth inhibitor using miRNA” (CancerStem Tech Inc., priority 2017, dated 2022)
Entries after “also recorded” stand apart in the source; their conditions may differ.

Assays:
[1] = tested on: human gastric cancer cells (AGS line); experiment: Antitumor effect on human gastric cancer cells, cell count after transfection; format: cell-based; conditions: 10 pmol/well, 48 hours, FIG. 10; for antitumor effect: positive control hsa-miR-34a
Procedure: (§1) A cell suspension prepared by suspending human pancreatic cancer cells (Bxpc3 line) in D-MEM medium (containing 10% by volume FBS) was seeded in each well of a 24-well plate at 3×10^3 cells/well, followed by culture at 37° C. overnight. Thereafter, according to the lipofectamin 2000 protocol, each miRNA was transfected at 10 pmol/well, and 48 hours later, the cells were counted. In addition, tests were also conducted under the same condition on a case where the miRNA was not introduced (untreated group), a case where hsa-miR-34a (SEQ ID NO: 8) was used (positive control) in place of the miRNA, and a case where a control miRNA (SEQ ID NO: 9) was used (control miRNA, negative control) in place of the selected miRNA.
As to hsa-miR-136-5p, hsa-miR-3065-3p and hsa-miR-181a-5p, evaluation was performed of the antitumor effect on human gastric cancer cells. The specific test method is the same as that for Test Example 4 except that human gastric cancer cells (AGS line) were used as cancer cells.

[2] = tested on: human large bowel cancer cells (DLD1 line); experiment: Antitumor effect on human large bowel cancer cells, cell count after transfection; format: cell-based; conditions: 10 pmol/well, FIG. 11; for antitumor effect: 72 hours, positive control hsa-miR-34a; for proliferation inhibitory effect on large bowel cancer cells: cells counted 72 hours after transfection
Procedure: as §1
As to hsa-miR-136-5p, hsa-miR-3065-3p, hsa-miR-4727-5p, hsa-miR-378g, hsa-miR-181a-5p, hsa-miR-362-5p and hsa-miR-608, evaluation was performed of the antitumor effect on human large bowel cancer cells. The specific test method is the same as that for Test Example 4 except that human large bowel cancer cells (DLD1 line) were used as cancer cells, and that the cells were counted 72 hours after transfection.

[3] = tested on: solid tumor from the cancer stem cell population (ZsGreen+); experiment: Mouse subcutaneous solid tumor model test; format: in vivo, BALB/cA nude mice
Procedure: In 100 ml of distilled water, 0.37 g of NaHCO3, 90 μl of NaH2PO4.2H2O (1M) and 180 μl of CaCl2 (1 M) were added in this order and dissolved, and the pH was adjusted to 7.5 with 1N HCl. This was filtered through 0.2 μm diameter filter. Per 1 ml of the resultant buffer, 2 μg of miRNA and 4 μl of CaCl2 (1 M) were mixed and incubated in a water bath at 37° C. for 30 minutes. Then, spin down was performed at 15000 rpm×5 minutes. The resultant pellet was dispersed in physiological saline (containing 0.5 wt % albumin). Accordingly, a dispersion of composite particles containing the miRNA in carbonate apatite particles was obtained. The resultant dispersion was subjected to ultrasonic vibration treatment for 10 minutes just prior to testing. Note that the ultrasonic vibration treatment was performed for 10 minutes using a water bath with an ultrasonic vibration function, in which the dispersion contained in a plastic container was floated on water set to 20° C., under conditions of high frequency output of 55 W and oscillation frequency of 38 kHz. The preparation obtained in this way was immediately used for the tests described below.
Note that it is confirmed in the measurement using a scanning probe microscope that the dispersion of ultrasonic vibration treatment includes composite particles composed of carbonate apatite nanoparticles containing the miRNA having an average particle diameter of 50 nm or less. It is also confirmed that the resultant composite particles contain about 20 μg of the miRNA per 1 mg of carbonate apatite.
The cancer stem cell population (ZsGreen+) obtained in Test Example 1 was subcutaneously injected at 5×10^5 cells to the left and right backs of 6 to 8 weeks age BALB/cA nude mice (manufactured by CLEA Japan, Inc.) to produce solid tumor model mice. When the tumor reached about 20 mm^3 in size, the mice were randomly divided into an hsa-miR-136-5p administration group (hsa-miR-136-5p), an untreated group, and a negative control group (control miRNA). In the hsa-miR-136-5p administration group, the day at which the tumor reached about 20 mm^3 in size was 0th day. On the 0th, 3rd, 5th, 7th, 10th, 12th, 14th, 17th and 19th days, carbonate apatite nanoparticles containing the hsa-miR-136-5p were intravenously injected into the tail vein at 40 μg/dose in terms of the amount of hsa-miR-136-5p. In the negative control group, carbonate apatite nanoparticles containing a control miRNA (SEQ ID NO: 9) were intravenously injected into the tail vein at the same schedule and dose as those for the miRNA136-5p administration group. In the untreated group, no drug was administered. During the test period, the tumor volume on the back of the mouse (longer diameter×shorter diameter×shorter diameter×1/2) was measured over time, and on the 24th day, the tumor was excised from the mice and observed for size, and its weight was measured.
A mouse subcutaneous solid tumor model test was conducted in the same manner as in Test Example 2 except that hsa-miR-3065-3p was used in place of hsa-miR-136-5p.
A mouse subcutaneous solid tumor model test was conducted in the same manner as in Test Example 2 except that hsa-miR-181-5p was used in place of hsa-miR-136-5p.

[4] = tested on: human large bowel cancer cells (HT29 line, HCT116 line and DLD1 line); experiment: Proliferation assay (absorbance at 450 nm over time); format: cell-based; conditions: HT29, HCT116 and DLD1 lines; 50 nM; culture for 96 hours; versus control miRNA; FIG. 13
Procedure: A cell suspension prepared by suspending human large bowel cancer cells (HT29 line, HCT116 line and DLD1 line) in DMEM medium (containing 10% by volume FBS) was seeded in each well of a 96-well plate at 3×10^3 cells/well, followed by culture at 37° C. overnight. Then, a mixture of lipofectamin RNAiMAX, Reagent (final concentration in each well: 0.03 μL/ml) and hsa-miR-3065-3p (final concentration in each well: 50 nM) was added for transfection. Subsequently, culture was carried out for 96 hours, and the absorbance at 450 nm was measured over time. In addition, tests were also performed wider the same condition on a case where a control miRNA (SEQ ID NO: 9) was used (control miRNA, negative control) in place of hsa-miR-3065-3p.
In FIG. 13, the time-course of relative values of the absorbance is shown, in which the relative values were determined when the absorbance after culture for 24 hours from transfection of hsa-miR-3065-3p was 1. […] This is because, as described above, among human large bowel cancer cells (HT29 line, HCT116 line and DLD1 line), cancer stem cells are present, so that hsa-miR-3065-3p is considered to intensively suppress proliferation of the cancer stem cells in particular, leading to the result.

Substance | proliferation inhibitory effect on gastric cancer cells [1] | antitumor effect [1] | antitumor effect [2] | proliferation inhibitory effect on large bowel cancer cells [2] | tumor excised on the 24th day (size and weight) as compared to the untreated group and the negative control group ([3]; 24th day, carbonate apatite nanoparticles, 40 μg/dose i.v., FIGS. 5b and 5c) | tumor volume as compared to the untreated group and the negative control group ([3]; after the 7th day, carbonate apatite nanoparticles, 40 μg/dose i.v., FIG. 5a) | antitumor effect as compared to the untreated group and the negative control group (control miRNA) ([3]; carbonate apatite nanoparticles containing the miRNA, 40 μg/dose, tail vein i.v., days 0-19, tumor excised on the 24th day) | proliferation inhibitory effect on human large bowel cancer cells [4] | tumor volume as compared to the untreated group and the negative control group ([3]; from the 17th day, carbonate apatite nanoparticles, 40 μg/dose i.v., FIG. 6)
hsa-miR-136-5p: human-derived miR-136-5p; base sequence set forth in SEQ ID NO: 1 as mature miRNA (ACUCCAUUUGUUUUGAUGAUGGA; listed as RNA, chemistry not given here; listed as Homo sapiens) | strong proliferation inhibitory effect | much better antitumor effect than that of hsa-miR-34a; also recorded: particularly remarkable antitumor effect | much better antitumor effect than that of hsa-miR-34a; also recorded: particularly remarkable antitumor effect | strong proliferation inhibitory effect | significantly smaller | significantly smaller tumor volume | remarkably higher antitumor effect |  | 
hsa-miR-3065-3p: human-derived miR-3065-3p; base sequence set forth in SEQ ID NO: 2 as mature miRNA (UCAGCACCAGGAUAUUGUUGGAG; listed as RNA, chemistry not given here; listed as Homo sapiens) | strong proliferation inhibitory effect | much better antitumor effect than that of hsa-miR-34a | much better antitumor effect than that of hsa-miR-34a; also recorded: particularly remarkable antitumor effect | strong proliferation inhibitory effect |  |  |  | high proliferation inhibitory effect | significantly reduced
